Source: patent US12594267B2, “Capsid inhibitors for the treatment of HIV” (Gilead Sciences, Inc., priority 2018, dated 2026)
Where two headings read alike, the source gives them in different places.

Assay: PK after subcutaneous administration of solutions in dogs
Assay type: in vivo, Beagle dog
Conditions: dog, plasma, sc, dog, mean ± SD, n=3; for concentration at 56 d: read-out: C56d
Method: Formulations containing the compound of Formula (Ia) were prepared as aqueous solutions or oral formulations and administered subcutaneously to rats, dogs, cynomolgus monkey, and/or rhesus monkey.
A solution of the compound of Formula (Ia) in 10% ethanol, 13% water, and 77% PEG 200 (400 mg/mL) was prepared. The solution was administered subcutaneously to dogs at a dose of 12 mg/kg and rats at a dose of 50 mg/kg and the pharmacokinetic (PK) profile was determined. […] In both species, plasma concentrations of the compound of Formula (Ia) were maintained above the target trough concentration of 20 nM (corresponding to an IQ of 5) for at least 84 days (12 weeks).
A solution of the compound of Formula (Ia) in 15% water and 85.0 PEG 300 (400 mg/mL) was prepared. The solution was administered subcutaneously to male beagle dogs at a dose level of 12 mg/kg and dose volume of […] and the pharmacokinetic (PK) profile was determined.
A solution of the compound of Formula (a) sodium salt in water and 300 (300 mg/mL) was prepared that contained 22.6% water/50% PEG 300/1.1% NaOH/26.3% Formula (Ia). The solution was administered subcutaneously to male beagle dogs at a dose level of 12 mg/kg and dose volume of […] and the pharmacokinetic (PK) profile was determined.
A 300 mg/ml solution of a compound of Formula (Ia) having 9.8 w/w % water, 65.0 w/w % PEG 300, and 25.2 w/w % of the compound of Formula (Ia) was prepared. The solution was administered subcutaneously to rats at a dose of 50 mg/kg and to dogs at a dose of 12 mg/kg and the pharmacokinetic (PK) profile was determined. […] In the rat, plasma concentrations of the compound of Formula (Ia) were maintained above the target trough concentration of 20 nM for at least 168 days (24 weeks). In the dog, plasma concentrations of the compound of Formula (Ia) were maintained above the target trough concentration of 20 nM for at least 84 days (12 weeks).
(§1) A 150 mg/ml solution of a compound of Formula (Ia) having 27.92 w/w % water, 58.04 w/w % PEG 300, 13.47 w/w % of a compound of Formula (Ia), and 1.1 w/w % NaOH was prepared. The solution was administered subcutaneously to rats at a dose of 50 mg/kg and to dogs at a dose of 12 mg/kg and the pharmacokinetic (PK) profile was determined. […] In the rat, plasma concentrations of the compound of Formula (Ia) were maintained above the target trough concentration of 20 nM for at least 126 days (18 weeks). In the dog, plasma concentrations of the compound of Formula (Ia) were maintained above the target trough concentration of 20 nM for at least 56 days (8 weeks).
as §1, with “300” for “150”, “23.2” for “27.92”, “50.0” for “58.04”, “25.7” for “13.47”
A 50 mg/ml solution of a compound of Formula (Ia) having 30.07 w/w % water, 64.40 w/w % PEG 300, 4.68 w/w % of a sodium salt of the compound of Formula (Ia), and 0.85 w/w % poloxamer 188 was prepared. The solution was administered subcutaneously to rats at a dose of 50 mg/kg and to dogs at a dose of 6 mg/kg and the pharmacokinetic (PK) profile was determined. […] In the rat, plasma concentrations of the compound of Formula (Ia) were maintained above the target trough concentration of 20 nM for at least 28 days (4 weeks). In the dog, plasma concentrations of the compound of Formula (Ia) were maintained above the target trough concentration of 20 nM for at least 14 days (2 weeks). […]

[1] = Beagle, 6 mg/kg, SC 6 mg/kg, 150 mg/mL solution (w/w %: 26.6 water, 56.97 PEG 300, 13.39 Formula (Ia), 0.57 NaOH, 2.49 poloxamer 188)
[2] = beagle, 6 mg/kg, SC 6 mg/kg, 300 mg/mL solution (w/w %: 21.97 water, 47.05 PEG 300, 25.21 Formula (Ia), 1.08 NaOH, 4.69 poloxamer 188)
[3] = beagle, 12 mg/kg, SC 12 mg/kg, 150 mg/mL solution (w/w %: 27.92 water, 58.04 PEG 300, 13.47 Formula (Ia), 1.1 NaOH)
[4] = beagle, 12 mg/kg, SC 12 mg/kg, 300 mg/mL solution (w/w %: 9.8 water, 65.0 PEG 300, 25.2 Formula (Ia))
[5] = beagle, 12 mg/kg, SC 12 mg/kg, 300 mg/mL solution (w/w %: 23.2 water, 50.0 PEG 300, 25.7 Formula (Ia), 1.1 NaOH)

Work on `CC(C)(C#Cc1ccc(-c2ccc(Cl)c3c(NS(C)(=O)=O)nn(CC(F)(F)F)c23)c([C@H](Cc2cc(F)cc(F)c2)NC(=O)Cn2nc(C(F)(F)F)c3c2C(F)(F)[C@@H]2C[C@H]32)n1)S(C)(=O)=O` [Formula (Ia), N—((S)-1-(3-(4-chloro-3-(methylsulfonamido)-1-(2,2,2-trifluoroethyl)-1H-indazol-7-yl)-6-(3-methyl-3-(methylsulfonyl)but-1-yn-1-yl)pyridin-2-yl)-2-(3,5-difluorophenyl)ethyl)-2-((3bS,4aR)-5,5-difluoro-3-(trifluoromethyl)-3b,4,4a,5-tetrahydro-1H-cyclopropa[3,4]cyclopenta[1,2-c]pyrazol-1-yl)acetamide] yielded an AUC(0-t) (Beagle, 6 mg/kg, SC 6 mg/kg, 100 mg/mL solution (w/w %: 28.36 water, 60.73 PEG 300, 9.23 sodium salt of Formula (Ia), 1.68 poloxamer 188), read-out: AUC0-24h) of 6.05 ± 3.43 µM·h, an AUC(0-t) (Beagle, 6 mg/kg, SC 6 mg/kg, 125 mg/mL solution (w/w %: 27.51 water, 58.92 PEG 300, 11.48 sodium salt of Formula (Ia), 2.09 poloxamer 188), read-out: AUC0-24h) of 4.71 ± 1.51 µM·h and an AUC(0-t) (Beagle, 6 mg/kg, SC 6 mg/kg, 125 mg/mL solution (w/w %: 27.51 water, 58.92 PEG 300, 11.48 sodium salt of Formula (Ia), 2.09 poloxamer 188), read-out: AUC0-14d) of 90.3 ± 3.5 µM·h. For the same molecule, the Cmax [1] was 101 ± 44 nM, the Tmax [1] was 10 ± 15.6 days and the AUC(0-t) (Beagle, 6 mg/kg, SC 6 mg/kg, 150 mg/mL solution (w/w %: 26.6 water, 56.97 PEG 300, 13.39 Formula (Ia), 0.57 NaOH, 2.49 poloxamer 188), read-out: AUC0-56d) was 69 ± 13.9 µM·h. It also gave an AUC(0-t) (Beagle, 6 mg/kg, SC 6 mg/kg, 150 mg/mL solution (w/w %: 26.6 water, 56.97 PEG 300, 13.39 Formula (Ia), 0.57 NaOH, 2.49 poloxamer 188), read-out: AUC0-84d) of 76.6 ± 8.5 µM·h, a concentration at 56 d [1] of 24.9 nM and an AUC(0-t) (beagle, 6 mg/kg, SC 6 mg/kg, 50 mg/mL solution (w/w %: 30.07 water, 64.40 PEG 300, 4.68 sodium salt of Formula (Ia), 0.85 poloxamer 188), read-out: AUC0-24h) of 14.7 ± 4.4 µM·h. It also gave a concentration at 14 d (beagle, 6 mg/kg, SC 6 mg/kg, 50 mg/mL solution (w/w %: 30.07 water, 64.40 PEG 300, 4.68 sodium salt of Formula (Ia), 0.85 poloxamer 188), read-out: C14d) of 37.2 ± 13.9 nM, an AUC(0-t) (beagle, 6 mg/kg, SC 6 mg/kg, 75 mg/mL solution (w/w %: 29.21 water, 62.55 PEG 300, 6.97 sodium salt of Formula (Ia), 1.68 poloxamer 188), read-out: AUC0-24h) of 5.88 ± 1.95 µM·h and an AUC(0-t) (beagle, 6 mg/kg, SC 6 mg/kg, 75 mg/mL solution (w/w %: 29.21 water, 62.55 PEG 300, 6.97 sodium salt of Formula (Ia), 1.68 poloxamer 188), read-out: AUC0-28d) of 101 ± 11 µM·h. For the same molecule, the concentration at 21 d (beagle, 6 mg/kg, SC 6 mg/kg, 75 mg/mL solution (w/w %: 29.21 water, 62.55 PEG 300, 6.97 sodium salt of Formula (Ia), 1.68 poloxamer 188), read-out: C21d) was 40 ± 24 nM, the Cmax [2] was 69 ± 22 nM and the AUC(0-t) (beagle, 6 mg/kg, SC 6 mg/kg, 300 mg/mL solution (w/w %: 21.97 water, 47.05 PEG 300, 25.21 Formula (Ia), 1.08 NaOH, 4.69 poloxamer 188), read-out: AUC0-56d) was 55.4 ± 20.8 µM·h. For the same molecule, the concentration at 56 d [2] was 30.4 ± 7.2 nM, the Cmax [3] was 312 ± 93 nM and the Tmax [3] was 16.3 ± 4.04 days. The concentration at 56 d [3] was 22.9 ± 5.6 nM, the Cmax [4] was 133 ± 10 nM and the Tmax [4] was 14 days. For the same molecule, the AUC(0-t) (beagle, 12 mg/kg, SC 12 mg/kg, 300 mg/mL solution (w/w %: 9.8 water, 65.0 PEG 300, 25.2 Formula (Ia)), read-out: AUC0-126d) was 139 ± 8 µM·h, the concentration at 84 d (beagle, 12 mg/kg, SC 12 mg/kg, 300 mg/mL solution (w/w %: 9.8 water, 65.0 PEG 300, 25.2 Formula (Ia)), read-out: C84d) was 21.7 ± 6.5 nM and the Cmax [5] was 267 ± 176 nM. For the same molecule, the Tmax [5] was 12.3 ± 9.62 days, the AUC(0-t) (beagle, 12 mg/kg, SC 12 mg/kg, 300 mg/mL solution (w/w %: 23.2 water, 50.0 PEG 300, 25.7 Formula (Ia), 1.1 NaOH), read-out: AUC0-56d) was 166 ± 110 µM·h and the concentration at 56 d [5] was 29.6 ± 30.8 nM. For the same molecule, the AUC(0-t) (beagle, 12 mg/kg, SC 12 mg/kg, 400 mg/mL solution in 10% ethanol, 13% water, 77% PEG 200, read-out: AUC0-84d) was 89.6 ± 10.1 µM·h.
